From publication PMC6007354 (2016)

Columns and labels:
[1] = test system: tRNA (GCGCGCGCGC) (RNA, other) GCGCGCGCGC; experiment: 1H NMR titration; conditions: 0.01 M HEPES pH 7.4 in D2O; shifts of probe and base protons
[2] = test system: tRNA (AUAUAUAUAU) (RNA, other) AUAUAUAUAU; experiment: 1H NMR titration; conditions: 0.01 M HEPES pH 7.4 in D2O; shifts of probe and base protons
[3] = test system: tRNA (GCGCGCGCGC) (RNA, other) GCGCGCGCGC; experiment: fluorescence turn-on (443 nm); conditions: 10 mM HEPES pH 7.4; probe 10 uM; quantum yield 0.22; no constant
[4] = test system: tRNA (AUAUAUAUAU) (RNA, other) AUAUAUAUAU; experiment: fluorescence turn-on (443 nm); conditions: 10 mM HEPES pH 7.4; probe 10 uM; quantum yield 0.21; no constant

Measured: binding

C[n+]1ccn(Cc2ccc3ccccc3c2)c1
yes: [1] | [2] | [3] | [4]
